Laboratory results from patent US20030100540A1, “Identification of NSAID-regulated genes” (Vanderbilt University, priority 2001, published 2003).
Entries after “also recorded” stand apart in the source; their conditions may differ.

Columns and labels:
HCA-7 cells [1] = assay: HCA-7 cell growth following treatment; format: cell-based; details: following treatment with NS-398
HCA-7 cells [2] = assay: Differential gene expression after NS-398 treatment (SSH, differential screening, Northern blotting); format: cell-based
Protocol: Cell culture. The HCA-7 cells, which are derived from a rectal carcinoma, were kindly provided by Dr. Susan Kirkland (ICRF, London, UK). Cells were cultured at 37° C. with 5% CO2 in McCoy's 5A medium containing penicillin, streptomycin, 10% FBS (Life Technologies, Inc., Grand Island, N.Y.). NS-398 and nimesulide (Cayman chemicals, Ann Arbor, Mich.), sulindac sulfide (Merck & Co., Rahway, N.J.) and SC-58125 (G.D. Searle Co., St. Louis, Mo.) were dissolved in DMSO prior to addition to cell culture medium. Experimental controls were treated with 0.1% DMSO.
mRNA isolation. Total cellular RNA was isolated using Tri-Reagent (Molecular Research Center, Inc., Cincinnati, Ohio) and polyadenylated RNA was isolated using a mRNA Purification Kit (Amersham Pharmacia Biotech, Inc., Piscataway, N.J.).
Suppression subtractive hybridization. SSH was performed with the PCR-Select™ cDNA Subtraction Kit (Clontech Laboratories Inc., Palo Alto, Calif.) as described by the manufacturer except for slight modifications of the PCR and hybridization conditions. Starting material consisted of 2 μg of mRNA from NS-398 treated HCA-7 cells and 2 μg of mRNA from control cells. After synthesis of the first and second cDNA strands, the cDNA was digested with Rsa I to obtain shorter, blunt-ended molecules. Then ligation of two different adapters to the cDNA fragments was performed separately. The adapter sequences were as follows: 5′-[…]-3′ (adapter 1-SEQ ID NO: 52) and 5′-[…]-3′ (adapter 2R-SEQ ID NO: 53). For the first round hybridization, the mixture of driver and tester cDNA were denatured at 98° C. for 1.5 min and then maintained at 68° C. for ˜10 h. For the second round hybridization, driver cDNA was denatured at 98° C. for 1.5 min and then added to the mixture of the two previous hybridization and allowed to incubate at 68° C. for ˜18 h.
After two rounds of hybridization, two rounds of PCR were performed to amplify the specific, differentially expressed cDNA fragments. All PCR reactions were performed using a PTC-100 thermal cycler (MJ Research, Inc. Watertown, Mass.). The primer used in first round is 5′-[…]-3′ (primer 1-SEQ ID NO: 54) and the primers used in second round were 5′-[…]-3′ (nested primer 1-SEQ ID NO: 55) and 5′-[…]-3′ (nested primer 2R -SEQ ID NO: 56). Cycling parameters are as follows: for the first round, 27 cycles of 94° C. for 30 s, 64° C. for 30 s and 71° C. for 1.5 min; for the second round, 15 cycles of 94° C. for 30 s, 68° C. for 30 s and 72° C. for 1.5 min.
To evaluate subtractive efficiency, the same amount of subtracted and unsubtracted secondary PCR products were applied as templates, and GAPDH primers were used to perform PCR. The PCR products were examined in a 2.0% agarose/EtBr gel to detect the abundance of GAPDH. After evaluation of the subtractive efficiency, the subtracted PCR products were cloned directly into the pCR2.1-TOPO vector (InVitrogen, Carlsbad, Calif.). Plates were incubated at 37° C. until small clones were visible and the blue/white staining could be clearly distinguished.
Differential screening. Differential screening was performed by using the PCR-Select™ Differential Screening Kit (Clontech) according to the users manual. After picking the recombinant clones from the subtractive library and identifying them by restriction digestion, the insert was PCR amplified in 20 μl volume reactions using nested PCR primer 1 and 2R. After amplification, 5 μl of the PCR product was denatured with 5 μl of 0.6 N NaOH and then 1.5 μl of each mixture was transferred to a nylon membrane. Each cDNA fragment was arrayed in duplicate in each blot and two identical blots were prepared for hybridization with different probes. The total secondary PCR amplified products from the forward and reverse SSH were used as probes. After washing, the membranes were exposed overnight to Kodak BioMax MR x-ray film (Eastman Kodak Company, Rochester, N.Y.) with and intensifying screen at −70° C.
Northern blotting. […]

prostate carcinoma cells = details: cited from earlier work
[3] = system: different types of cancer cell lines; details: cited from earlier work
[4] = system: AOM induced colon carcinogenesis; details: AOM induced colon carcinogenesis rat model; cited from earlier work
angiogenesis = details: cited from earlier work
[5] = system: human colon carcinoma cells; details: cited from earlier work
NNK-induced lung cancer = NNK-induced lung cancer model; cited from earlier work
[6] = cited from earlier work
[7] = cited from earlier work; remark: listed apart in the source
[8] = 100 μM NS-398 for 4 days, down = decreased levels following treatment, -fold decrease
[9] = 100 μM NS-398 for 4 days, up = increased levels following treatment, -fold increase

SMILES: CS(=O)(=O)Nc1ccc([N+](=O)[O-])cc1OC1CCCCC1 [NS-398]
- Inhibition of HCA-7 cell growth (HCA-7 cells [1]): significant inhibition
- Regulation by NS-398: Cyclin K (AF060515) (HCA-7 cells [2]; [8]): down (2.1) fold
- Regulation by NS-398: KIAA0101 (D14657) (HCA-7 cells [2]; [8]): down (2.7) fold
- Regulation by NS-398: Proliferation associated p100 protein (AF098158) (HCA-7 cells [2]; [8]): down (2.2) fold
- Regulation by NS-398: Dynamin 2 (NM_004945) (HCA-7 cells [2]; [9]): up (3.1) fold
- Regulation by NS-398: ENH, LIM protein (similar to rat protein kinase C-binding enigma) (NM_006457) (HCA-7 cells [2]; [9]): up (3.0) fold
- Regulation by NS-398: FAT tumor suppressor (Drosophila) homolog (NM_005245) (HCA-7 cells [2]; [9]): up (4.4) fold
- Regulation by NS-398: LIP.1 (LAR-interacting protein 1b) (U22816) (HCA-7 cells [2]; [9]): up (3.4) fold
- Regulation by NS-398: PCDH7 (BH-Pcdh) (AB06757) (HCA-7 cells [2]; [9]): up (26.0) fold
- Regulation by NS-398: Pdcd4 (Programmed cell death) (NM_011050) (HCA-7 cells [2]; [9]): up (1.5) fold
- Regulation of named genes by NS-398, stated in words (HCA-7 cells [2]; gene named in the value): genes that were down-regulated by NS-398, one was designated as NRG-1; also recorded: Cyclin K was found to be down-regulated; also recorded: Pdcd4, Dynamin 2 and LIP.1 are all up-regulated; also recorded: ENH is a LIM protein whose levels are increased
- Induction of apoptosis (prostate carcinoma cells): induce apoptosis
- Effect on tumor growth [3]: suppress tumor growth
- Chemopreventive effects [4]: chemopreventive effects
- Anti-angiogenic effects (angiogenesis): anti-angiogenic effects
- Induction of apoptosis [5]: induce apoptosis
- Chemopreventive effects (NNK-induced lung cancer): chemopreventive effects

SMILES: CC1=C(CC(=O)O)c2cc(F)ccc2/C1=C\c1ccc([S+](C)[O-])cc1 (stereo not drawn) [sulindac, (Z)-5-Fluoro-2-methyl-1-((4(methylsulfinyl)phenyl)methylene) 1H-indene-3-acetic acid]
- Drug absorbed after oral administration [6]: about 90%
- Time to peak plasma levels ([6]; fasting patients, oral): about 2 hours
- Mild gastrointestinal effects, share of patients ([7]; abdominal pain and nausea most frequent): ~20%
- Skin rash and pruritus, share of patients ([7]; human, in vivo): 5%
